{"source": "patent US9115061B2", "about": "“Naphthalene-based inhibitors of anti-apoptotic proteins” (BURNHAM INSTITUTE FOR MEDICAL RESEARCH, priority 2007, dated 2015)", "key": {"[1]": {"system": "MCF7 cells", "assay": "XTT dye reduction assay", "format": "cell-based, human", "details": "three days, read-out: IC50, cell viability MCF7", "protocol": "(§1) The effects of the compounds on viability of tumor cells in culture were monitored by using XTT assays with MCF7 and ZR75-1 cell lines. MCF7 cells were grown in DMEM containing 10% fetal bovine serum, penicillin/streptomycin, supplemented with 10^−10 M insulin, 1 mM sodium pyruvate and glutamine. ZR75-1 cells were grown in RPMI containing 10% fetal bovine serum, penicillin/streptomycin, supplemented with HEPES buffer, 1 mM sodium pyruvate and glutamine. Cells were regularly tested for mycoplasma contamination. Cells were seeded triplicates at an initial cell density of 1,000 cells per well. Blank wells received no cells.\n(§2) Relative numbers of viable cells was determined by XTT assay. Briefly, in a 96-well plate, we added 50 μl of a mixture of 1 mg/ml of XTT (2,3-bis(2-methoxy-4-nitro-5-sulfophenyl)-5-[(phenylamino)carbonyl]-2H-tetrazolium hydroxide) (Polysciences, Washington, Pa.) containing 0.025 mM PMS (phenazine methosulfate) to each well. The 96-well plates were reincubated for an additional 4 hours to allow for XTT formazan production. Then, the contents of each plate were mixed and optical densities were determined at a wavelength of 450 nm (OD450). Net OD450 was determined after subtracting OD450 of blank wells. Low-passage HeLa cells (between passage number 10 and 20) were transfected with pcDNA3-BCL-XL or control pcDNA3 plasmids using Lipofectamine Plus reagent (Invitrogen) and selected in medium containing 800 μg/ml of G418. Immunoblot analysis of BCL-XL was accomplished as previously described."}, "[2]": {"system": "ZR75-1 cells", "assay": "XTT dye reduction assay", "format": "cell-based, human", "details": "three days, read-out: IC50, cell viability ZR75-1", "protocol": "as §1, §2"}, "[3]": {"details": "orally 0.06 mmol/kg daily for up to 21 days; cited from earlier work"}, "[4]": {"system": "BCL-2 transgenic mice", "assay": "Oral efficacy study in BCL-2 transgenic mice (splenomegaly)", "format": "in vivo, mouse", "details": "QDX5 for 3 weeks", "protocol": "The transgene was propagated on the Balb/c background.\nSpleens were removed and weighed.\nSpleens were excised from sacrificed mice and cell suspensions treated with a mouse erythrocyte lysing kit (R & D Systems). Total splenocyte count was determined by typan blue dye exclusion assays using hemocytometers. The percentage of B-lymphocytes was determined by fluorescence activated cell sorter (FACS) analysis SACS-CANTO, Bectin-Dickinson Inc., Mountain View, Calif.) following staining cells with Phyco-Erytrin (PE)-conjugated anti-CD19 or -B220 antibodies (Becton Dickinson, San Jose, Calif. 95131).\nRepresentative data are shown by FIGS. 11A and 11B."}, "[5]": {"target": "BIR3 domain of XIAP (Homo sapiens (Human), UniProt P98170)", "sequence (P98170 241-356)": "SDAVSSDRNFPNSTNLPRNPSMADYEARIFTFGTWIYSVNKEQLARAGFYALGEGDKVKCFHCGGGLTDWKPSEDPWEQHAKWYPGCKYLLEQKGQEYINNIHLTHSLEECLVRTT", "assay": "Reactivity test by [15N,1H]-correlation NMR", "details": "1 mM gossypol, 200 μM BIR3, two hours", "protocol": "Pure polyphenols were obtained from SIGMA (gossypol and purpurogallin) and/or from Microsource Discovery Systems (Purpurogallin derivatives). Reference compounds were obtained from Chembridge Corp. (San Diego). Gossypol was tested as a racemic mixture of (+) and (−) isomers. Compounds were dissolved in DMSO at 100 mM concentration and stored at −20 DC. NMR analysis was periodically performed on the compounds as a quality control, prior to further dilution for binding and displacement assays."}}}
{"smiles": "Cc1cc2c(C(C)C)c(O)c(O)c(C=O)c2c(O)c1-c1c(C)cc2c(C(C)C)c(O)c(O)c(C=O)c2c1O", "note": "[Gossypol, gossypol]", "values": [{"measurement": "IC50", "setting": "[1]", "result": 13.2, "unit": "µM"}, {"measurement": "IC50", "setting": "[2]", "result": 8.4, "unit": "µM"}, {"measurement": "anti-tumor activity", "setting": "[3]", "result": "show anti-tumor activity"}, {"measurement": "lethality", "setting": "[3]", "result": "non-lethal"}, {"measurement": "tolerability, low dose", "setting": "[4]; 0.06 mmol/kg oral", "result": "well tolerated"}, {"measurement": "shrinkage of spleen, low dose", "setting": "[4]; 0.06 mmol/kg oral, wet weight and B-cell count", "result": "induced shrinkage of spleen to a considerable extent but not significantly"}, {"measurement": "tolerability, high dose", "setting": "[4]; […] oral", "result": "not tolerated"}, {"measurement": "reactivity with 15N-labeled BIR3, spectrum versus apo-Bir3", "setting": "[5]", "result": "No appreciable differences"}]}
